As a reminder, the IC50 is the point on the concentration scale where inhibition reaches its midpoint. Higher therefore signals lower potency.

What all share (assay type): biochemical
For one assay, the target named is JAK1 (Homo sapiens (Human), UniProt P23458). Put plainly: JAK1 Inhibition Assay (Example B, Omnia kinase fluorescence peptide substrate assay). The source says:
(§1) The assays described in Examples A, B, C and D for the determination of Tyk2, JAK1, JAK2 and JAK3 kinase activity, respectively, utilized the Omnia® Kinase fluorescence peptide substrate-based technology (Invitrogen). The specific components of the assay mixture are described in Examples A, B, C and D. In these assays, Mg^2+ is chelated upon phosphorylation of the Omnia peptide by the kinase to form a bridge between the chelation-enhanced fluorophore Sox and the phosphate, resulting in an increase in fluorescence emission at 485 nm when excited at […]. The reactions were therefore read at excitation 360 nm and emission was measured at 485 nm every 50 seconds for 45 minutes using a PerkinElmer EnVision Multilabel Plate Reader.
(§2) The final buffer conditions for Tyk2, JAK1, JAK2, and JAK3 assays were as follows: 25 mM HEPES, pH 7.4, 10 mM MgCl2, 0.01% Triton X-100 and 1 mM DTT.
(§3) Two-μL aliquots of these were transferred to a fresh plate for a ten-fold intermediate dilution with assay buffer. Five-μL aliquots of the diluted compounds were then transferred to 20-μL of assay mixtures described in Examples A, B, C and D for a final concentration of DMSO of 2%. […] For each plate, percent of control (POC) values were calculated for each well according to the following equation: […]
(§4) IC50's were estimated from the POC's using a standard 4-parameter logistic model:
(§5) The IC50 is defined as the concentration of inhibitor at which the POC equals 50 for the fitted curve.
Compounds of Formula I were screened for their ability to inhibit JAK1 using the general enzyme inhibition assay method, in which the assay mixture contained 1 mM ATP, 8 μM Omnia® Y12 peptide (Catalog # IVGN KPZ3121C; Invitrogen Corporation, Carlsbad, Calif.) and 12.5 nM JAK1 in a total volume of 25 μL. JAK1 was purchased from Invitrogen Corporation, Carlsbad, Calif. (catalog # IVGN PV4775).

The target in another assay is Human Tyk2 kinase domain (Homo sapiens (Human), UniProt P29597). Description: Tyk2 Inhibition Assay (Example A, Omnia kinase fluorescence peptide substrate assay). The note with it: TYK2 Enzyme IC50 1 mM ATP, averaged IC50 ranges.
Source text: as §1, §2, §3, §4, §5
Compounds of Formula I were screened for their ability to inhibit Tyk2 using the general enzyme inhibition assay method, in which the assay mixture contained 1 mM ATP, 8 μM Omnia Y12 peptide (Catalog # IVGN KPZ3121C; Invitrogen Corporation, Carlsbad, Calif.) and 1 nM Tyk2 in a total volume of 25 μL. Human Tyk2 kinase domain, comprising amino acids 886 to 1187 with 10 additional histidine residues (histidine tag) on the carboxy terminus, was expressed and purified from bacculovirus in-house at Array BioPharma Inc. (Boulder, Colo.). The histidine tag was cleaved after purification using standard conditions.

The target of a further assay is JAK3 (Homo sapiens (Human), UniProt P52333). Put plainly: JAK3 Inhibition Assay (Example D, Omnia kinase fluorescence peptide substrate assay).
Source text: as §1, §2, §3, §4, §5
Compounds of Formula I were screened for their ability to inhibit JAK3 using the general enzyme inhibition assay method, in which the assay mixture contained 1 mM ATP, 10 μM Omnia® Y7 peptide (Catalog # IVGN KNZ3071C, Invitrogen Corporation, Carlsbad, Calif.) and 2 nM JAK3 in a total volume of 25 μL. JAK3 was purchased from Invitrogen Corporation, Carlsbad, Calif. (catalog # IVGN PV4080).

[1] abbreviates: JAK1 Enzyme IC50 1 mM ATP, 1 mM ATP, averaged IC50 ranges.

Read-outs that look alike come from different tables or passages of the source.

Chain of JAK3 (P52333 whole entry): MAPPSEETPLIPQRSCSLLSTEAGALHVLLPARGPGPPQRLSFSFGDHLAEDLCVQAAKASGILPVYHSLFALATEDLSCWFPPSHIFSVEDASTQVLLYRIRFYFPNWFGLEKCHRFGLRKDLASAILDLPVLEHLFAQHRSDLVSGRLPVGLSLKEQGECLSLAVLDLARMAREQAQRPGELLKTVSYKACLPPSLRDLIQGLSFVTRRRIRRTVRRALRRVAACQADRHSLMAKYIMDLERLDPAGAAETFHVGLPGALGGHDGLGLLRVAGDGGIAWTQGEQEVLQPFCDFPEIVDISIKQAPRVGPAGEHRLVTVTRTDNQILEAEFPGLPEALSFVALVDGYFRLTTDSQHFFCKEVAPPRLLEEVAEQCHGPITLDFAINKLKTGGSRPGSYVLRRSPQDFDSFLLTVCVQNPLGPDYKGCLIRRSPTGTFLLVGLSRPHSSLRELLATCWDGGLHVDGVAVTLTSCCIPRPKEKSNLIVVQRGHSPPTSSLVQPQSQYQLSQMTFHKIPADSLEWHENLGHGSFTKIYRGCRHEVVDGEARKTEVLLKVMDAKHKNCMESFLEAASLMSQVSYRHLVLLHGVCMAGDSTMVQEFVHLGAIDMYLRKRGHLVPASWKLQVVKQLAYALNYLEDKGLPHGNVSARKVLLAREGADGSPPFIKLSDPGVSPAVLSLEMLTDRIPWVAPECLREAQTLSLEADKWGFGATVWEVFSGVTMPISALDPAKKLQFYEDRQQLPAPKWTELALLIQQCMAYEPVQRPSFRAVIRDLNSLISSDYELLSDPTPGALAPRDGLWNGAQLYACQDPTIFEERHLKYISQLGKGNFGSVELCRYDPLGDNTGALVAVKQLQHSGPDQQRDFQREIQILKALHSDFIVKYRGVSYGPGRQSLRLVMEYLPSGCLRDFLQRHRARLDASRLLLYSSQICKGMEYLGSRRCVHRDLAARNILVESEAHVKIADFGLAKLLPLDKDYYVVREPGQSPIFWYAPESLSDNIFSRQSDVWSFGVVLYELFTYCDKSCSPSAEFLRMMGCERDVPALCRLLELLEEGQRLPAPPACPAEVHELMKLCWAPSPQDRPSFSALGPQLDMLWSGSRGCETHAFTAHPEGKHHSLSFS
Chain of Human Tyk2 kinase domain (P29597 886-1187): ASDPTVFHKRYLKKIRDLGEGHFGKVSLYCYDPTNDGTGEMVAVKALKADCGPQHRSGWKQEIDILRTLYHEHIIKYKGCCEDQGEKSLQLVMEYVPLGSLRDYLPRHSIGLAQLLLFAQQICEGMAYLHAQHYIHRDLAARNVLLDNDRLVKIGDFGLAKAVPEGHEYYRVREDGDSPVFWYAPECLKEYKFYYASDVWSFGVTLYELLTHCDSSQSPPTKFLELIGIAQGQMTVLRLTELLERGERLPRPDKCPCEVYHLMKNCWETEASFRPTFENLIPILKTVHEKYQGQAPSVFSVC
Chain of JAK1 (P23458 whole entry): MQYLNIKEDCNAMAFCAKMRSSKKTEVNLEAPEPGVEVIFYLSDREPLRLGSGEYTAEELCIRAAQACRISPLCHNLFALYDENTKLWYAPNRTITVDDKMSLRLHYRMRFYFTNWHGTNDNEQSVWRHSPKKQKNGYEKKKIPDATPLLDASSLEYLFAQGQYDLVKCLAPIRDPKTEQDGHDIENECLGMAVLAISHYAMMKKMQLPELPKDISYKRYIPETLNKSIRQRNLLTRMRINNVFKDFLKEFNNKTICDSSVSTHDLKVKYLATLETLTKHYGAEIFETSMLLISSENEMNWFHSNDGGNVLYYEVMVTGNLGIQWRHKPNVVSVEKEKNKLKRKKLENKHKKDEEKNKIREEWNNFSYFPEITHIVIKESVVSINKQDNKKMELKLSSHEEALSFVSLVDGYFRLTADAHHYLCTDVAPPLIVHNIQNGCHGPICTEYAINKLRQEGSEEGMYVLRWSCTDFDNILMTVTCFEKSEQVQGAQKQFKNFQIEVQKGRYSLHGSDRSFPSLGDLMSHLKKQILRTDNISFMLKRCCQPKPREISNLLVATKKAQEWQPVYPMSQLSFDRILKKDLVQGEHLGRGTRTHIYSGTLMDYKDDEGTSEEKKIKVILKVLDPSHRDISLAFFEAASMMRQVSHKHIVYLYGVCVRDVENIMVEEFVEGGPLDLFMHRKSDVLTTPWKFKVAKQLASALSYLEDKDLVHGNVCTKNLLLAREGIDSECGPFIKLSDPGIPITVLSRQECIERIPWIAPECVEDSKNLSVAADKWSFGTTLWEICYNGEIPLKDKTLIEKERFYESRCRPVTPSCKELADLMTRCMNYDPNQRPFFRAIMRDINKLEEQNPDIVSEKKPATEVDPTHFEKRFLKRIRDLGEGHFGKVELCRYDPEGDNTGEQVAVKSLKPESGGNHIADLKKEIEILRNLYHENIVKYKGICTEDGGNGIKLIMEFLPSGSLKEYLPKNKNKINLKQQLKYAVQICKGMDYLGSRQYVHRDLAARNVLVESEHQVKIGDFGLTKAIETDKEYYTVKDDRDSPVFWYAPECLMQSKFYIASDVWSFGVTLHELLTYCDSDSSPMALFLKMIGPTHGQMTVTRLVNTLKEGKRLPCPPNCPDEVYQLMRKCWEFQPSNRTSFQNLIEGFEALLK

`CCC(CC)n1cc(-c2nc(-c3cnn([C@@H]4COC[C@H]4O)c3)cn3nccc23)cn1` (single isomer, unassigned) [Example 159]: on JAK1, the IC50 fell in the range of 100 to 1000 nM. Still for that read-out and setting: the value for `CCC(CC)n1cc(-c2nc(-c3cnn([C@H]4COC[C@@H]4O)c3)cn3nccc23)cn1` (single isomer, unassigned) [Example 160] was 1000 to 10000 nM. Regarding `CCC(C1CC1)n1cc(-c2nc(-c3cnn(C[C@@H](O)CO)c3)cn3nccc23)cn1` (single isomer, unassigned) [Example 213], the IC50 lay within 10 to 100 nM against Human Tyk2 kinase domain, 100 to 1000 nM on JAK1 and 1000 to 10000 nM against JAK3. For `CCC(CC)n1cc(-c2nc(-c3cnn(CC4CNC(=O)O4)c3)cn3nccc23)cn1` (centres unmarked) [Example 8, 5-((4-(4-(1-(pentan-3-yl)-1H-pyrazol-4-yl)pyrazolo[1,5-a]pyrazin-6-yl)-1H-pyrazol-1-yl)methyl)oxazolidin-2-one], the IC50 against JAK3 is 1000 to 10000 nM. With `CCC(CC)n1cc(-c2nc(-c3cnn(C4CS(=O)(=O)C4)c3)cn3nccc23)cn1` [Example 13, 3-(4-(4-(1-(pentan-3-yl)-1H-pyrazol-4-yl)pyrazolo[1,5-a]pyrazin-6-yl)-1H-pyrazol-1-yl)thietane 1,1-dioxide], the figures for the half-maximal inhibitory concentration (IC50) against Human Tyk2 kinase domain, on JAK1 and at JAK3 were 10 to 100 nM, 100 to 1000 nM and 1000 to 10000 nM, respectively. `CCC(CC)n1cc(-c2nc(-c3cnn(CCS(N)(=O)=O)c3)cn3nccc23)cn1` [Example 24, 2-(4-(4-(1-(pentan-3-yl)-1H-pyrazol-4-yl)pyrazolo[1,5-a]pyrazin-6-yl)-1H-pyrazol-1-yl)ethanesulfonamide]: the 50% inhibitory concentration (IC50) is 100 to 1000 nM against JAK1 and 1000 to 10000 nM on JAK3. The matching figures for `CCC(CC)n1cc(-c2nc(-c3cnn(C[C@H]4CCCN4)c3)cn3nccc23)cn1` [Example 27, (R)-4-(1-(pentan-3-yl)-1H-pyrazol-4-yl)-6-(1-(pyrrolidin-2-ylmethyl)-1H-pyrazol-4-yl)pyrazolo[1,5-a]pyrazine]: 1000 to 10000 nM and 1000 to 10000 nM. Taken in the same sequence, the figures for `CCC(CC)n1cc(-c2nc(-c3cnn(C[C@@H]4CCCN4)c3)cn3nccc23)cn1` [Example 28, (S)-4-(1-(pentan-3-yl)-1H-pyrazol-4-yl)-6-(1-(pyrrolidin-2-ylmethyl)-1H-pyrazol-4-yl)pyrazolo[1,5-a]pyrazine] were 1000 to 10000 nM and 1000 to 10000 nM.

Consider `CCC(CC)n1cc(-c2nc(-c3cnn(C4CCN(C(C)=O)CC4)c3)cn3nccc23)cn1` [Example 31, 1-(4-(4-(4-(1-(pentan-3-yl)-1H-pyrazol-4-yl)pyrazolo[1,5-a]pyrazin-6-yl)-1H-pyrazol-1-yl)piperidin-1-yl)ethanone], for which the figures for the IC50 against Human Tyk2 kinase domain, against JAK1 and against JAK3 were 10 to 100 nM, 100 to 1000 nM and 1000 to 10000 nM, respectively. Consider `CCC(CC)n1cc(-c2nc(-c3cnn(C4CCN(S(C)(=O)=O)CC4)c3)cn3nccc23)cn1` [Example 32, 6-(1-(1-(methylsulfonyl)piperidin-4-yl)-1H-pyrazol-4-yl)-4-(1-(pentan-3-yl)-1H-pyrazol-4-yl)pyrazolo[1,5-a]pyrazine], for which the half-maximal inhibitory concentration (IC50) was in the range of 10 to 100 nM on JAK1 and 1000 to 10000 nM on JAK3. The matching figures for `CCC(CC)n1cc(-c2nc(-c3cnn(C4CCN(C(=O)COC)CC4)c3)cn3nccc23)cn1` [Example 33, 2-methoxy-1-(4-(4-(4-(1-(pentan-3-yl)-1H-pyrazol-4-yl)pyrazolo[1,5-a]pyrazin-6-yl)-1H-pyrazol-1-yl)piperidin-1-yl)ethanone]: 100 to 1000 nM and 1000 to 10000 nM. Turning to `CCC(CC)n1cc(-c2nc(-c3cnn(C4CCN(C(=O)NC)CC4)c3)cn3nccc23)cn1` [Example 34, N-methyl-4-(4-(4-(1-(pentan-3-yl)-1H-pyrazol-4-yl)pyrazolo[1,5-a]pyrazin-6-yl)-1H-pyrazol-1-yl)piperidine-1-carboxamide], the IC50 at Human Tyk2 kinase domain was in the range of 10 to 100 nM; at JAK1, 10 to 100 nM; against JAK3 it was 1000 to 10000 nM. Regarding `CCC(CC)n1cc(-c2nc(-c3cnn(C4CCN(C(=O)CN)CC4)c3)cn3nccc23)cn1` [Example 36, 2-amino-1-(4-(4-(4-(1-(pentan-3-yl)-1H-pyrazol-4-yl)pyrazolo[1,5-a]pyrazin-6-yl)-1H-pyrazol-1-yl)piperidin-1-yl)ethanone], the IC50 at JAK1 fell in the range of 100 to 1000 nM; on JAK3, 1000 to 10000 nM. For the molecule `CCC(CC)n1cc(-c2nc(-c3cnn(C4CN(S(C)(=O)=O)C4)c3)cn3nccc23)cn1` [Example 37, 6-(1-(1-(methylsulfonyl)azetidin-3-yl)-1H-pyrazol-4-yl)-4-(1-(pentan-3-yl)-1H-pyrazol-4-yl)pyrazolo[1,5-a]pyrazine], the IC50 at Human Tyk2 kinase domain lay in the range of 10 to 100 nM; against JAK1 it was 100 to 1000 nM; against JAK3, 1000 to 10000 nM. For `CCC(CC)n1cc(-c2nc(-c3cnn(C4CN(C(C)=O)C4)c3)cn3nccc23)cn1` [Example 38, 1-(3-(4-(4-(1-(pentan-3-yl)-1H-pyrazol-4-yl)pyrazolo[1,5-a]pyrazin-6-yl)-1H-pyrazol-1-yl)azetidin-1-yl)ethanone], the concentration for half-maximal inhibition (IC50) was in the range of 100 to 1000 nM on JAK1 and 1000 to 10000 nM against JAK3. The matching figures for `CCC1(n2cc(-c3nc(-c4cnn(C)c4)cn4nccc34)cn2)CN(S(=O)(=O)C(F)(F)F)C1` [Example 48, 4-(1-(3-ethyl-1-((trifluoromethyl)sulfonyl)azetidin-3-yl)-1H-pyrazol-4-yl)-6-(1-methyl-1H-pyrazol-4-yl)pyrazolo[1,5-a]pyrazine]: 10 to 100 nM and 1000 to 10000 nM.

With `CCC(CC)n1cc(-c2nc(-c3cnn(CC(CO)CO)c3)cn3nccc23)cn1` [Example 61, 2-((4-(4-(1-(pentan-3-yl)-1H-pyrazol-4-yl)pyrazolo[l,5-a]pyrazin-6-yl)-1H-pyrazol-1-yl)methyl)propane-1,3-diol], the figures for the IC50 at JAK1 (setting [1]) and against JAK3 were 100 to 1000 nM and 1000 to 10000 nM, respectively. In the case of `CC(C)[C@H](C)n1cc(-c2nc(-c3cnn(C[C@@H](O)CO)c3)cn3nccc23)cn1` [Example 80, (R)-3-(4-(4-(1-((S)-3-methylbutan-2-yl)-1H-pyrazol-4-yl)pyrazolo[1,5-a]pyrazin-6-yl)-1H-pyrazol-1-yl)propane-1,2-diol], the half-inhibitory concentration (IC50) at JAK3 is 1000 to 10000 nM. For `CC1(C)CCC[C@@H]1n1cc(-c2nc(-c3cnn(C[C@@H](O)CO)c3)cn3nccc23)cn1` [Example 95, (R)-3-(4-(4-(1-((S)-2,2-dimethylcyclopentyl)-1H-pyrazol-4-yl)pyrazolo[1,5-a]pyrazin-6-yl)-1H-pyrazol-1-yl)propane-1,2-diol], the IC50 at Human Tyk2 kinase domain and against JAK1 (setting [1]) was 1000 to 10000 nM each time. At JAK3, `CCC(CC)n1cc(-c2nc(-c3cnn([C@H]4C[C@H](C(=O)NCCO)C4)c3)cn3nccc23)cn1` [Example 171, (1r,3r)-N-(2-hydroxyethyl)-3-(4-(4-(1-(pentan-3-yl)-1H-pyrazol-4-yl)pyrazolo[1,5-a]pyrazin-6-yl)-1H-pyrazol-1-yl)cyclobutanecarboxamide] gave a half-maximal inhibitory concentration (IC50) of 1000 to 10000 nM.

The molecule `CC[C@H]([C@@H]1CC1(F)F)n1cc(-c2nc(-c3cnn(C[C@@H](O)CO)c3)cn3nccc23)cn1` [Example 204, (R)-3-(4-(4-(1-((R)-1-((S)-2,2-difluorocyclopropyl)propyl)-1H-pyrazol-4-yl)pyrazolo[1,5-a]pyrazin-6-yl)-1H-pyrazol-1-yl)propane-1,2-diol] yielded an IC50 against JAK3 of 1000 to 10000 nM.

The values are drawn from patent US10189845B2, “4,6-substituted-pyrazolo[1,5-a]pyrazines as janus kinase inhibitors” (ARRAY BIOPHARMA INC., priority 2014, dated 2019).
